{"source": "paper PMC9894920", "about": "“Development of an improved and specific inhibitor of NADPH oxidase 2 to treat traumatic brain injury” (Redox Biology, 2023)", "key": {"[1]": {"test": "Aqueous kinetic solubility in PBS buffer", "format": "physicochemical", "conditions": "aqueous buffer, kinetic from dmso stock, read-out: Solubility", "procedure": "The rat liver microsomal stability, parallel artificial membrane permeability assay (PAMPA), and aqueous kinetic solubility assay in phosphate-buffered saline (PBS) buffer were performed as described in the indicated references."}, "NOX3": {"biological_target": "T1, NOX3 (Homo sapiens, UniProt Q9HBY0)", "T1 construct": "expressed in transfected cells; host or cells: Expi293 (human embryonic kidney) cells, transient transfection", "T1 sequence (Q9HBY0 1-568)": "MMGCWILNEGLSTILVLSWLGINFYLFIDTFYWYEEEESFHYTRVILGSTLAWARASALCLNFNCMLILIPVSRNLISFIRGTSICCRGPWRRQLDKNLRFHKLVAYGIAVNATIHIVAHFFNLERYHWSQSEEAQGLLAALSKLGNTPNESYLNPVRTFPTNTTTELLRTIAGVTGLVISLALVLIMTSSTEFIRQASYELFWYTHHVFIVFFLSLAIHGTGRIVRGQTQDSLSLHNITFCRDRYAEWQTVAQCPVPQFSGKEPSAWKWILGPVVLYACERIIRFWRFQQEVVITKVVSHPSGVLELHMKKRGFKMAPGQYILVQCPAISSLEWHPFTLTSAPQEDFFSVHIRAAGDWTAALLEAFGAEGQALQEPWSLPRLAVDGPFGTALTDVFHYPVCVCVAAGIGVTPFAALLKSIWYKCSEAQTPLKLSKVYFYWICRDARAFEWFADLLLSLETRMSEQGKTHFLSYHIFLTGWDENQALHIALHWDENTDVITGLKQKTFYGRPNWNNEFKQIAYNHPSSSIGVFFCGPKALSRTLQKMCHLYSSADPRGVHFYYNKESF", "T1 sequence (P13498 2-195 partner limits assumed)": "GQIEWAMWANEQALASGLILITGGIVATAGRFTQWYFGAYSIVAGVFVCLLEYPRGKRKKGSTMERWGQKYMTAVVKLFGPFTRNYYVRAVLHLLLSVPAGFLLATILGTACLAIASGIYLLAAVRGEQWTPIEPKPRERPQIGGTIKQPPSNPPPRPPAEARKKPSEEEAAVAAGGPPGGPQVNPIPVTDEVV", "test": "Expi293 whole cell assay, NOX3 overexpression", "format": "cell-based", "conditions": "doses 100x higher than GSK2795039", "procedure": "(§1) Given concerns about previous assays for specific NOX family members we here report the first use of the Expi293 Expression System (Thermo Scientific) to overexpress NOX1, 2, 3, 4, and 5 in excess of any endogenous NOX proteins present in these cells. Transfections were performed following the manufacturer's instructions using the plasmids for each NOX as described in Supplemental Table 2 except that the enhancer solution provided with the Expi293 system was not used because it promoted enzyme activation.\n(§2) After the times indicated in Supplemental Table 2, cells were washed and 50,000 added per well of a white 96-well plate (Greiner) along with 50 μM Luminol and 2.5 U horseradish peroxidase/mL in a volume of 90 μl for NOX1, NOX2, and NOX5. Inhibitors or vehicle controls were added and cells were incubated for 20 min at 37 °C prior to activation with the indicated stimuli. For NOX3 and NOX4 (constitutively active), cells were incubated with inhibitor or vehicle control prior to the addition of luminol and HRP. Chemiluminescence was measured every 2 min for 1 s per well at 37 °C in a Varioscan Multimode reader. AUC data were analyzed using GraphPad Prism using non-linear regression analysis after expressing relative to control alone (maximum ROS production)."}, "NOX4": {"biological_target": "T2, NOX4 (Homo sapiens, UniProt Q9NPH5)", "T2 construct": "expressed in transfected cells; host or cells: Expi293 (human embryonic kidney) cells, transient transfection, 48 hours", "T2 sequence (Q9NPH5 1-578)": "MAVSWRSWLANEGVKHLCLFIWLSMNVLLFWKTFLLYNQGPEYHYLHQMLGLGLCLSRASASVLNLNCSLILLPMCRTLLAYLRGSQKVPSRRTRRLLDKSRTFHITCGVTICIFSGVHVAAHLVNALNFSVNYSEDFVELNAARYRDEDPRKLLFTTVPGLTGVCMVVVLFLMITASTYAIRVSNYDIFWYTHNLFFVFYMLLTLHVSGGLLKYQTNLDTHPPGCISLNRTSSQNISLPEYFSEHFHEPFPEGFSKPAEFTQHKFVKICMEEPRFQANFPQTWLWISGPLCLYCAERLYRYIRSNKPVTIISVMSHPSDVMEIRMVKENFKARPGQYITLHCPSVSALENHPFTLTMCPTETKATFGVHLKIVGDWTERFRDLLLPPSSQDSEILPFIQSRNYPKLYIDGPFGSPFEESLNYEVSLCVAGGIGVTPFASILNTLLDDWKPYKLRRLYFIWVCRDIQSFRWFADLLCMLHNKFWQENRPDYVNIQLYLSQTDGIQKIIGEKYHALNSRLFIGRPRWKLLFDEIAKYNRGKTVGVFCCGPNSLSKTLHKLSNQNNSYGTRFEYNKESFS", "T2 sequence (P13498 2-195 partner limits assumed)": "T1 sequence (P13498 2-195 partner limits assumed)", "test": "Expi293 whole cell assay, NOX4 overexpression", "format": "cell-based", "conditions": "doses 100x higher than GSK2795039", "procedure": "as §1, §2"}, "NOX2": {"biological_target": "T3, NOX2 (Homo sapiens, UniProt P04839)", "T3 sequence (P04839 2-570 limits assumed)": "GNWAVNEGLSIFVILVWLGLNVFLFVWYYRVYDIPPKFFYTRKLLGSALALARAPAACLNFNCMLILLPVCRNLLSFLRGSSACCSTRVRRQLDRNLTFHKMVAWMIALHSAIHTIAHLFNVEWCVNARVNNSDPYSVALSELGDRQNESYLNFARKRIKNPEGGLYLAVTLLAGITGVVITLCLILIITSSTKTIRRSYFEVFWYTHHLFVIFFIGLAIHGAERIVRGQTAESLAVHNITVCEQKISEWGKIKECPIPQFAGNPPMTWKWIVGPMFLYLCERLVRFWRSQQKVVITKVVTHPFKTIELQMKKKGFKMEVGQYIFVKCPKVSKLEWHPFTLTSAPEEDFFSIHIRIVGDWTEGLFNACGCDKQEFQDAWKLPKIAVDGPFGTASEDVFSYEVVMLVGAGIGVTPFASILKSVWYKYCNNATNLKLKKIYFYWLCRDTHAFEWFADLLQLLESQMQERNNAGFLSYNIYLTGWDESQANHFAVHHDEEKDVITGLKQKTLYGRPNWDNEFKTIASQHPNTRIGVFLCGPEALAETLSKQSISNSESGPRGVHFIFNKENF", "T3 sequence (P13498 2-195 partner limits assumed)": "T1 sequence (P13498 2-195 partner limits assumed)", "test": "NOX2 activity in primary human granulocytes (PMN), luminol chemiluminescence", "format": "cell-based", "design": "When tested against NOX2 in primary human neutrophils; endogenous in cells; host or cells: primary human granulocytes (PMN) from donor blood", "procedure": "Human blood was obtained after informed consent by the Department of Transfusion Medicine (NIH Clinical Center) and provided as de-identified specimens. Human granulocytes were isolated using Percoll density fractionation as described and NOX2 activity was assessed in white polypropylene flat bottom 96 well plates following 15 min of preincubation at 37 °C with compounds or vehicle controls using 50 μM luminol as a chemiluminescence enhancer in an assay volume of 100 μl RPMI1640 with 1.1 × 10^5 cells/well in Varioskan Lux luminometer for 30 cycles of 1 s per well (approximately 1 h)."}}, "note": "Like-named read-outs stand apart in the source and are kept apart here."}
{"compound": "Cn1ccc(S(=O)(=O)Nc2ccnc3c2c(-c2ccc4ccn(C)c4c2)cn3C2CC2)n1", "note": "[NCATS-SM7270, N-(1-cyclopropyl-3-(1-methyl-1H-indol-6-yl)-1H-pyrrolo [2,3-b]pyridin-4-yl)-1-methyl-1H-pyrazole-3-sulfonamide]", "values": [{"measurement": "solubility", "setting": "[1]", "value": 0.0196, "unit": "mg/mL"}, {"measurement": "activity against NOX3", "setting": "NOX3", "value": "no detectable activity"}, {"measurement": "activity against NOX4", "setting": "NOX4", "value": "no detectable activity"}, {"measurement": "IC50", "setting": "NOX2; mean of 6 donors ± S.D., read-out: IC50 against NOX2 in primary human neutrophils", "value": "4.09 ± 1", "unit": "µM"}, {"measurement": "IC50", "setting": "NOX2; mean ± SD, n in cell, read-out: NOX-2 IC50 from PMN", "value": 2.15, "unit": "µM"}]}
